Experimental data reported in US20090270407A1, “FUNGICIDAL ISOXAZOLIDINES” (E. I. DU PONT DE NEMOURS AND COMPANY, priority 2008, published 2009).
Marks after values point to notes of the source that are not given here.

Assays:
Conditions in all cases: 100 = 100 % disease control, 0 = no disease control relative to controls
[1] = system: Septoria nodorum; assay: Test C: wheat glume blotch, preventive spray on wheat seedlings, visual disease rating
Method: (An asterisk “*” next to the rating value indicates a 40 ppm test suspension.)
The test suspension was sprayed to the point of run-off on wheat seedlings. The following day the seedlings were inoculated with a spore suspension of Septoria nodorum (the causal agent of wheat glume blotch) and incubated in a saturated atmosphere at 20° C. for 48 h, and then moved to a growth chamber at 20° C. for 7 days, after which time visual disease ratings were made.
A dash (−) indicates no test results. All results are for 200 ppm except where followed by “*” which indicates 40 ppm.

[2] = system: Septoria tritici; assay: Test D: wheat leaf blotch, preventive spray on wheat seedlings, visual disease rating; type: in vivo
Text: A dash (−) indicates no test results.

[3] = system: Erysiphe graminis f. sp. tritici; assay: Test A: wheat powdery mildew, preventive spray on wheat seedlings, visual disease rating
[4] = system: Botrytis cinerea; assay: Test E: tomato Botrytis, preventive spray on tomato seedlings, visual disease rating
[5] = system: Puccinia recondita f. sp. tritici; assay: Test B: wheat leaf rust, preventive spray on wheat seedlings, visual disease rating
Text: General protocol for preparing test suspensions for Tests A-I: The test compounds were first dissolved in acetone in an amount equal to 3% of the final volume and then suspended at the desired concentration (in ppm) in acetone and purified water (50/50 mix) containing 250 ppm of the surfactant Trem® 014 (polyhydric alcohol esters). The resulting test suspensions were then used in Tests A-I. Spraying a 200 ppm test suspension to the point of run-off on the test plants was the equivalent of a rate of 500 g/ha.
The test suspension was sprayed to the point of run-off on wheat seedlings. The following day the seedlings were inoculated with a spore suspension of Puccinia recondita f. sp. tritici (the causal agent of wheat leaf rust) and incubated in a saturated atmosphere at 20° C. for 24 h, and then moved to a growth chamber at 20° C. for 7 days, after which time visual disease ratings were made.
All results are for 200 ppm except where followed by “*” which indicates 40 ppm.

[6] = system: Alternaria solani; assay: Test F: tomato early blight, preventive spray on tomato seedlings, visual disease rating

SMILES	Test C disease control rating ([1]; 200 ppm) [%]	Test D disease control rating ([2]; 200 ppm) [%]	Test A disease control rating ([3]; 200 ppm) [%]	Test E disease control rating ([4]; 200 ppm) [%]	Test B disease control rating ([5]; 200 ppm) [%]	Test F disease control rating ([6]; 200 ppm) [%]	Test C disease control rating ([1]; 40 ppm (marked *))	Test D disease control rating ([2]; 40 ppm (marked *))	Test A disease control rating ([3]; 40 ppm (marked *))	Test E disease control rating ([4]; 40 ppm (marked *))	Test B disease control rating ([5]; 40 ppm (marked *))	Test F disease control rating ([6]; 40 ppm (marked *))
CN1OC(C)(c2cccnc2)CC1c1cccc2ccccc12 (mixture of isomers) [Compound 62]	97	80	97	88	17	91	–	–	–	–	–	–
CN1OC(C)(c2cccnc2)CC1c1ccc(-c2ccnn2CC(F)(F)F)cc1 (mixture of isomers) [Compound 63]	0	36	21	0	0	8	–	–	–	–	–	–
COc1ccc(C2CC(C)(c3cccnc3)ON2C)c2ccccc12 (mixture of isomers) [Compound 68]	0	65	0	0	0	0	–	–	–	–	–	–
CN1OC(C)(c2cccnc2)CC1c1ccc(-c2ccn(CC(F)(F)F)n2)cc1 (mixture of isomers) [Compound 80]	0	94	0	0	0	0	–	–	–	–	–	–
CN1OC(C)(c2cccnc2)CC1c1cccc(I)c1 (mixture of isomers) [Compound 87]	0	84	0	0	0	0	–	–	–	–	–	–
CN1OC(C)(c2cccnc2)CC1c1ccccc1I (mixture of isomers) [Compound 88]	0	70	81	0	27	0	–	–	–	–	–	–
CN1OC(C)(c2cccnc2)CC1c1cccc2c1OC(F)(F)O2 (mixture of isomers) [Compound 89]	0	36	0	0	0	16	–	–	–	–	–	–
CN(C)c1ccc(C2CC(C)(c3cccnc3)ON2C)c2ccccc12 (mixture of isomers) [Compound 90]	0	35	0	0	0	0	–	–	–	–	–	–
Cc1cccc(C2CC(C)(c3cccnc3)ON2C)c1 (mixture of isomers) [Compound 98]	–	–	–	–	–	–	0* %	3* %	0* %	0* %	0* %	0* %
Cc1ccccc1C1CC(C)(c2cccnc2)ON1C (mixture of isomers) [Compound 99]	0	18	0	0	17	0	–	–	–	–	–	–
COc1ccccc1C1CC(C)(c2cccnc2)ON1C (mixture of isomers) [Compound 100]	0	13	21	26	0	8	–	–	–	–	–	–
COC(=O)c1ccc(C2CC(C)(c3cccnc3)ON2C)cc1 (stereo not drawn) [Compound 39]	51	32	88	90	0	0	–	–	–	–	–	–
CN1OC(C)(c2cccnc2)CC1c1ccc(-n2ccc(-c3ccccc3)n2)cc1 (stereo not drawn) [Compound 40]	–	–	–	–	–	–	64* %	77* %	78* %	75* %	0* %	0* %
CN1OC(C)(c2cccnc2)CC1c1ccc(-n2ccc(-c3ccccc3)n2)cc1 (stereo not drawn) [Compound 41]	–	–	–	–	–	–	0* %	65* %	78* %	0* %	0* %	0* %
Cc1ccn(-c2ccc(C3CC(C)(c4cccnc4)ON3C)cc2)n1 (stereo not drawn) [Compound 42]	–	–	–	–	–	–	100* %	88* %	71* %	99* %	9* %	97* %
Cc1ccn(-c2ccc(C3CC(C)(c4cccnc4)ON3C)cc2)n1 (stereo not drawn) [Compound 43]	–	–	–	–	–	–	90* %	79* %	0* %	88* %	0* %	52* %
CN1OC(c2cccnc2)(C(F)(F)F)CC1c1ccc(-n2ccc(C(F)(F)F)n2)cc1 (stereo not drawn) [Compound 44]	–	–	–	–	–	–	69* %	89* %	100* %	0* %	19* %	0* %
CN1OC(c2cccnc2)(C(F)(F)F)CC1c1ccc(-n2ccc(C(F)(F)F)n2)cc1 (stereo not drawn) [Compound 45]	–	–	–	–	–	–	0* %	52* %	96* %	0* %	0* %	0* %
CN1OC(C)(c2cccnc2)CC1c1ccc(-n2ccc(-c3cccs3)n2)cc1 (stereo not drawn) [Compound 46]	–	–	–	–	–	–	0* %	62* %	0* %	78* %	0* %	0* %
CN1OC(C)(c2cccnc2)CC1c1ccc(-n2ccc(-c3cccs3)n2)cc1 (stereo not drawn) [Compound 47]	–	–	–	–	–	–	0* %	42* %	35* %	0* %	0* %	0* %
CN1OC(C)(c2cccnc2)CC1c1ccc(-n2ccc(-c3ccc(Br)cc3)n2)cc1 (stereo not drawn) [Compound 48]	–	–	–	–	–	–	0* %	43* %	61* %	20* %	0* %	0* %
CN1OC(C)(c2cccnc2)CC1c1ccc(-n2ccc(-c3ccc(Br)cc3)n2)cc1 (stereo not drawn) [Compound 49]	–	–	–	–	–	–	0* %	27* %	61* %	0* %	0* %	0* %
Cc1cc(C)n(-c2ccc(C3CC(C)(c4cccnc4)ON3C)cc2)n1 (stereo not drawn) [Compound 50]	–	–	–	–	–	–	87* %	73* %	0* %	84* %	0* %	0* %
